Source: ChEMBL document CHEMBL1150159, “Semisynthetic analogues of the microtubule-stabilizing agent discodermolide: preparation and biological activity” (J Nat Prod, 2002)

Tests used:
A549 = test: Cytotoxicity against human A549 cells; assay type: functional, cell-based
P388 = test: Cytotoxicity against mouse P388 cells; assay type: functional, cell-based

| Structure (SMILES) | IC50 (A549) | IC50 (P388) |
| --- | --- | --- |
| C=C/C=C\[C@H](C)[C@H](OC(N)=O)[C@@H](C)[C@H](O)[C@@H](C)C/C(C)=C\[C@H](C)[C@@H](O)[C@@H](C)/C=C\[C@@H](O)C[C@@H]1OC(=O)C(C)=C[C@H]1C | 21.7 nM | 33.6 nM |
| CCCC[C@H](C)[C@H](OC(N)=O)[C@@H](C)[C@H](OC(C)=O)[C@@H](C)C/C(C)=C\[C@H](C)[C@@H](OC(C)=O)[C@@H](C)CCCC[C@@H]1OC(=O)[C@H](C)[C@@H](OC(C)=O)[C@H]1C |  | > 7050 nM |
| C=C/C=C\[C@H](C)[C@H](OC(N)=O)[C@@H](C)[C@H](OC(C)=O)[C@@H](C)C/C(C)=C\[C@H](C)[C@@H](OC(C)=O)[C@@H](C)/C=C\[C@@H](O)C[C@@H]1OC(=O)C(C)=C[C@H]1C | > 7590 nM | > 7590 nM |
| CCCC[C@H](C)[C@H](OC(N)=O)[C@@H](C)[C@H](O)[C@@H](C)C/C(C)=C\[C@H](C)[C@@H](O)[C@@H](C)CCCC[C@@H]1OC(=O)[C@H](C)[C@@H](O)[C@H]1C | 377 nM | 309 nM |
| CCCC[C@H](C)[C@H](OC(N)=O)[C@@H](C)[C@H](O)[C@@H](C)C/C(C)=C\[C@H](C)[C@@H](O)[C@@H](C)/C=C\[C@@H](O)C[C@@H]1OC(=O)[C@H](C)[C@@H](O)[C@H]1C | 8.4 nM | 10 nM |
| C=C/C=C\[C@H](C)[C@H](OC(N)=O)[C@@H](C)[C@H](OC(C)=O)[C@@H](C)C/C(C)=C\[C@H](C)[C@@H](OC(C)=O)[C@@H](C)/C=C\[C@H](C[C@@H]1OC(=O)C(C)=C[C@H]1C)OC(C)=O | > 7130 nM | 7080 nM |
| C=C/C=C\[C@H](C)[C@H](OC(N)=O)[C@@H](C)[C@H](OC(C)=O)[C@@H](C)C/C(C)=C\[C@H](C)[C@@H](O)[C@@H](C)/C=C\[C@@H](O)C[C@@H]1OC(=O)C(C)=C[C@H]1C | > 8100 nM | > 8100 nM |
| CCCC[C@H](C)[C@H](OC(N)=O)[C@@H](C)[C@H](O)[C@@H](C)CC(C)C[C@H](C)[C@@H](O)[C@@H](C)CC[C@@H](O)C[C@@H]1OC(=O)[C@H](C)[C@@H](O)[C@H]1C (stereo partly drawn) | > 8290 nM | > 8290 nM |
| CCCC[C@H](C)[C@H](OC(N)=O)[C@@H](C)[C@H](O)[C@@H](C)C/C(C)=C\[C@H](C)[C@@H](O)[C@@H](C)CC[C@@H](O)C[C@@H]1OC(=O)[C@H](C)[C@@H](O)[C@H]1C | 67.7 nM | 33.8 nM |
| C=C/C=C\[C@H](C)[C@H](OC(N)=O)[C@@H](C)[C@H](O)[C@@H](C)C/C(C)=C\[C@H](C)[C@H]1OC(=O)C=C[C@@H]1C | 6770 nM | 3690 nM |
| C=C/C=C\[C@H](C)[C@H](O)[C@@H](C)[C@H](O)[C@@H](C)C/C(C)=C\[C@H](C)[C@H]1OC(=O)C=C[C@@H]1C | > 12800 nM | > 12800 nM |
| C=C/C=C\[C@H](C)[C@H](OC(N)=O)[C@@H](C)[C@H](O)[C@@H](C)C/C(C)=C\[C@H](C)[C@@H](OC(C)=O)[C@@H](C)/C=C\[C@@H](O)C[C@@H]1OC(=O)C(C)=C[C@H]1C | 3130 nM | 519 nM |
